Experimental data from US20220340564A1, “ANTIBACTERIAL COMPOUNDS” (Janssen Sciences Ireland Unlimited Company, priority 2019, published 2022).

Test system: Mycobacterium tuberculosis strain EH4.0 expressing green-fluorescent protein (GFP)
Test: microbe, parasite or virus in culture
Format: cell-based
Conditions: 168 h, read-out: pIC50 (converted)

Row | SMILES | IC50 [nM]
1 | CCc1nc2nc(N)c(Cl)cn2c1C(=O)NCc1ccc(N2CCN(S(=O)(=O)C(F)(F)F)C=N2)c(F)c1 [Compound 126] | 9.77
2 | CCc1nc2ccc(C#N)cn2c1C(=O)NCc1ccc(N2CCN(S(=O)(=O)C(F)(F)F)C(OC)=N2)cc1 [Compound 71] | 166
3 | COC1=NN(c2ccc(CNC(=O)c3c(C(F)F)nc4n3CCCC4)cc2F)CCN1S(=O)(=O)C(F)(F)F [Compound 137] | 6.17
4 | CCc1nc2c(C)cc(OC)cn2c1C(=O)NCc1ccc(N2CCN(S(=O)(=O)C(F)(F)F)C=N2)c(F)c1 [Compound 105] | 27.5
5 | CCc1nc2cc3c(cn2c1C(=O)NCc1ccc(N2CCN(S(=O)(=O)C(F)(F)F)C=N2)c(F)c1)OCC3 [Compound 131] | 8.71
6 | CCc1nc2ccc(F)cn2c1C(=O)NCc1ccc(N2CCN(S(=O)(=O)C(F)(F)F)C(OC)=N2)c(F)c1 [Compound 204] | 4.47
7 | CCc1nc2ccc(Cl)cn2c1C(=O)NCc1cnc(N2CCN(S(=O)(=O)C(F)(F)F)C=N2)c(C)c1 [Compound 208] | 69.2
8 | Cc1ccc2nc(C(F)(F)F)c(C(=O)NCc3cnc(N4CCN(S(=O)(=O)C(F)(F)F)C=N4)c(F)c3)n2c1 [Compound 176] | 15.8
9 | CCc1nc2nc3c(cn2c1C(=O)NCc1ccc(N2CCN(S(=O)(=O)C(F)(F)F)C=N2)c(F)c1)CCCC3 [Compound 119] | 13.5
10 | CCc1nc2ccc(Cl)cn2c1C(=O)NCc1ccc(N2CCN(S(=O)(=O)C(F)(F)F)C=N2)c(C)c1 [Compound 5] | 7.94
11 | CCc1nc2cc(Br)c(Cl)cn2c1C(=O)NCc1ccc(N2CCN(S(=O)(=O)C(F)(F)F)C=N2)c(F)c1 [Compound 103] | 28.2
12 | CCc1nc2ccc(C)cn2c1C(=O)NCc1ccc(N2CCN(S(=O)(=O)C(F)(F)F)C(C)=N2)cc1 [Compound 215] | 0.912
13 | CCc1nc2ccc(Cl)cn2c1C(=O)NCc1ccc(N2CCNC(OC)=N2)cc1 [Compound 96] | 36.3
14 | CCc1nc2nc3c(cn2c1C(=O)NCc1ccc(N2CCN(S(=O)(=O)C(F)(F)F)C(C)=N2)cc1)CCOC3 [Compound 217] | 14.1
15 | CCc1nc2ccc(C#N)cn2c1C(=O)NCc1ccc(N2CCN(S(=O)(=O)C(F)(F)F)C=N2)cc1 [Compound 72] | 158
16 | CCc1nc2c(C)cc(C)cn2c1C(=O)NCc1cnc(N2CCN(S(=O)(=O)C(F)(F)F)C=N2)c(F)c1 [Compound 183] | 200
17 | O=C(NCc1ccc(N2CCN(S(=O)(=O)C(F)(F)F)C=N2)c(F)c1)c1c(C(F)F)nc2ccccn12 [Compound 159] | 1.2
18 | CCc1nc2cc(OC)c(C)cn2c1C(=O)NCc1ccc(N2CCN(S(=O)(=O)C(F)(F)F)C=N2)c(F)c1 [Compound 106] | 25.7
19 | CCc1nc2ccc(Cl)cn2c1C(=O)NCc1ccc(N2C=NN(C)CC2)cc1 [Compound 4] | 39.8
20 | CCc1nc2cc(NC)c(Cl)cn2c1C(=O)NCc1ccc(N2CCN(S(=O)(=O)C(F)(F)F)C=N2)c(F)c1 [Compound 80] | ≥ 501
21 | CCc1nc2cc(C)c(Cl)cn2c1C(=O)NCc1ccc(N2CCN(S(=O)(=O)C(F)(F)F)C=N2)c(F)c1 [Compound 116] | 15.1
22 | CCc1nc2nc(C)c(Cl)cn2c1C(=O)NCc1ccc(N2CCN(S(=O)(=O)C(F)(F)F)C=N2)c(F)c1 [Compound 155] | 1.62
23 | O=C(NCc1ccc(N2CCN(S(=O)(=O)C(F)(F)F)C=N2)cc1)c1c(C(F)F)nc2ccccn12 [Compound 128] | 9.12

Row | SMILES | IC50 [nM]
24 | CCc1nc2ccc(Cl)cn2c1C(=O)NCc1ccc(N2CCN(C(C)=O)C=N2)cc1 [Compound 18] | 15.8
25 | CCc1nc2c(F)cc(C)cn2c1C(=O)NCc1cnc(N2CCNC=N2)c(F)c1 [Compound 187] | ≥ 501
26 | CCc1nc2cc(C)c(Cl)cn2c1C(=O)NCc1ccc(N2CCN(S(=O)(=O)C(F)(F)F)C(OC)=N2)c(F)c1 [Compound 132] | 8.32
27 | CCOc1ccc2nc(CC)c(C(=O)NCc3ccc(N4CCN(S(=O)(=O)C(F)(F)F)C=N4)cc3)n2c1 [Compound 43] | 10
28 | CCc1nc2cc3c(cn2c1C(=O)NCc1ccc(N2CCN(S(=O)(=O)C(F)(F)F)C=N2)c(F)c1)OCCO3 [Compound 100] | 31.6
29 | CCc1nc2ccc(Cl)cn2c1C(=O)NCc1ccc(N2CCN(S(=O)(=O)CCOC)C=N2)cc1 [Compound 19] | 39.8
30 | Cc1ccc2nc(C(F)(F)F)c(C(=O)NCc3ccc(N4CCN(S(=O)(=O)C(F)(F)F)C=N4)c(F)c3)n2c1 [Compound 175] | 1.58
31 | O=C(NCc1ccc(N2CCN(S(=O)(=O)C(F)(F)F)C=N2)c(F)c1)c1c(C(F)(F)F)nc2cc(F)c(Cl)cn12 [Compound 114] | 16.2
32 | Cc1cc(F)c2nc(C(F)(F)F)c(C(=O)NCc3cnc(N4CCN(S(=O)(=O)C(F)(F)F)C=N4)c(F)c3)n2c1 [Compound 184] | 31.6
33 | CCc1nc2nc3c(cn2c1C(=O)NCc1ccc(N2CCN(S(=O)(=O)C(F)(F)F)C(OC)=N2)c(F)c1)CCOC3 [Compound 180] | 3.98
34 | CCc1nc2cc(C)c(Cl)cn2c1C(=O)NCc1ccc(N2CCN(S(=O)(=O)C(F)(F)F)C(OC)=N2)cc1 [Compound 108] | 20.4
35 | CCc1nc2ccc(Cl)cn2c1C(=O)NCc1ccc(N2CCN(S(=O)(=O)C(F)(F)F)C(C)=N2)c(F)c1 [Compound 213] | 3.47
36 | O=C(NCc1ccc(N2CCN(S(=O)(=O)C(F)(F)F)C=N2)c(F)c1)c1c(C(F)(F)F)nc2n1CCCC2 [Compound 123] | 10.2
37 | CCc1nc2cc(OC)c(Cl)cn2c1C(=O)NCc1ccc(N2CCN(S(=O)(=O)C(F)(F)F)C(OC)=N2)c(F)c1 [Compound 46] | 100
38 | CCc1nc2ccc(N3CCCC3)cn2c1C(=O)NCc1ccc(N2CCN(S(=O)(=O)C(F)(F)F)C=N2)cc1 [Compound 65] | ≥ 501
39 | CCc1nc2cc(OC)ccn2c1C(=O)NCc1ccc(N2CCN(S(=O)(=O)C(F)(F)F)C(OC)=N2)cc1 [Compound 52] | 41.7
40 | COC1=NN(c2ccc(CNC(=O)c3c(C(F)(F)F)nc4ccccn34)cc2F)CCN1S(=O)(=O)C(F)(F)F [Compound 79] | 3.72
41 | CCc1nc2sc(C)cn2c1C(=O)NCc1ccc(N2CCN(S(=O)(=O)C(F)(F)F)C=N2)c(F)c1 [Compound 163] | 0.316
42 | CCc1nc2ncc(F)cn2c1C(=O)NCc1ccc(N2CCN(S(=O)(=O)C(F)(F)F)C=N2)cc1 [Compound 10] | 63.1
43 | CCc1nc2ccc(Cl)cn2c1C(=O)NCc1cnc(N2CCN(S(=O)(=O)C(F)(F)F)C=N2)c(F)c1 [Compound 142] | 4.68
44 | CCc1nc2ncc(C)cn2c1C(=O)NCc1ccc(N2CCN(S(=O)(=O)C(F)(F)F)C(OC)=N2)c(F)c1 [Compound 193] | 0.891
45 | CCc1nc2cc(OC)c(OC)cn2c1C(=O)NCc1ccc(N2CCN(S(=O)(=O)C(F)(F)F)C(OC)=N2)c(F)c1 [Compound 53] | 81.3
46 | CCc1nc2ncc(C(=O)NC)cn2c1C(=O)NCc1ccc(N2CCN(S(=O)(=O)C(F)(F)F)C=N2)cc1 [Compound 61] | ≥ 501

Row | SMILES | IC50 [nM]
47 | CCc1nc2ccc(Cl)cn2c1C(=O)NCc1ccc(N2CCN(c3cccs3)C(OC)=N2)cc1 [Compound 120] | 12.9
48 | COC1=NN(c2ccc(CNC(=O)c3c(C(F)(F)F)nc4n3CCCC4)cc2)CCN1S(=O)(=O)C(F)(F)F [Compound 98] | 33.1
49 | COC1=NN(c2ccc(CNC(=O)c3c(C(F)(F)F)nc4ccc(Cl)cn34)cc2F)CCN1S(=O)(=O)C(F)(F)F [Compound 117] | 14.8
50 | Cc1cc(F)c2ncc(C(=O)NCc3cnc(N4CCN(S(=O)(=O)C(F)(F)F)C=N4)c(F)c3)n2c1 [Compound 178] | 200
51 | COC1=NN(c2ccc(CNC(=O)c3c(C(F)F)nc4ccccn34)cc2)CCN1S(=O)(=O)C(F)(F)F [Compound 149] | 3.55
52 | CCc1nc2ccc(Cl)cn2c1C(=O)NCc1ccc(N2CCN(S(=O)(=O)C(F)(F)F)C(C)=N2)cc1 [Compound 21] | 2.51
53 | CCc1nc2nc(C)c(Cl)cn2c1C(=O)NCc1ccc(N2CCNC=N2)c(F)c1 [Compound 199] | > 500
54 | CC1=NN(c2ccc(CNC(=O)c3c(C(F)(F)F)nc4ccccn34)cc2)CCN1S(=O)(=O)C(F)(F)F [Compound 214] | 13.5
55 | O=C(NCc1ccc(N2CCN(S(=O)(=O)C(F)(F)F)C=N2)c(F)c1)c1c(C(F)F)nc2n1CCCC2 [Compound 147] | 3.8
56 | CCc1nc2cc(Cl)c(OC)cn2c1C(=O)NCc1ccc(N2CCN(S(=O)(=O)C(F)(F)F)C(OC)=N2)c(F)c1 [Compound 49] | 23.4
57 | CCc1nc2ccc(Cl)cn2c1C(=O)NCc1ccc(N2CCN(C)C(C)=N2)cc1 [Compound 59] | 200
58 | CCc1nc2nc(OC)c(Cl)cn2c1C(=O)NCc1ccc(N2CCN(S(=O)(=O)C(F)(F)F)C=N2)c(F)c1 [Compound 86] | 89.1
59 | CCc1nc2c(Cl)cc(C)cn2c1C(=O)NCc1ccc(N2CCN(S(=O)(=O)C(F)(F)F)C=N2)c(F)c1 [Compound 102] | 29.5
60 | CCc1nc2c(C)cc(F)cn2c1C(=O)NCc1ccc(N2CCN(S(=O)(=O)C(F)(F)F)C=N2)c(F)c1 [Compound 89] | 83.2
61 | CCc1nc2nc(OC)ccn2c1C(=O)NCc1ccc(N2CCN(S(=O)(=O)C(F)(F)F)C=N2)c(F)c1 [Compound 115] | 15.8
62 | CCc1nc2ncc(C(=O)N(C)C)cn2c1C(=O)NCc1ccc(N2CCN(S(=O)(=O)C(F)(F)F)C=N2)cc1 [Compound 60] | 200
63 | CCc1nc2ncc(Cl)cn2c1C(=O)NCc1ccc(N2CCN(S(=O)(=O)C(F)(F)F)C=N2)c(F)c1 [Compound 146] | 3.8
64 | O=C(NCc1ccc(N2CCN(S(=O)(=O)C(F)(F)F)C=N2)cc1)c1c(C(F)(F)F)nc2ccccn12 [Compound 127] | 9.55
65 | CCc1nc2ccc(C)cn2c1C(=O)NCc1ccc(N2CCN(S(=O)(=O)C(F)(F)F)C=N2)c(F)c1 [Compound 164] | 0.245
66 | CCc1nc2n(ccc3ncnn32)c1C(=O)NCc1ccc(N2CCN(S(=O)(=O)C(F)(F)F)C=N2)c(F)c1 [Compound 207] | 186
67 | CCc1nc2ccc(Cl)cn2c1C(=O)NCc1ccc(N2CCN(Cc3nc(C(F)(F)F)cs3)C=N2)cc1 [Compound 69] | 126
68 | CCc1nc2c(Cl)cccn2c1C(=O)NCc1ccc(N2CCN(S(=O)(=O)C(F)(F)F)C=N2)c(F)c1 [Compound 129] | 8.91
69 | CCc1nc2ccc(Cl)cn2c1C(=O)NCc1ccc(N2CCNC(OC)=N2)c(F)c1 [Compound 110] | 18.6
